For 14 compounds, EC50 results are on record in ChEMBL document CHEMBL1131928, “On the relationship of OSW-1 to the cephalostatins” (1999).

Structures can show the parent of a compound that is named as a salt. A value given as a limit tells only on which side of the number the result lay.

Common to all, as to type: functional
What all share (conditions): Homo sapiens, read-out: ED50 (the source's name)

The test system of test [1] is MIA PaCa-2. The test is described as follows: Cytotoxicity against PACA-2 cell line in the purdue cell culture screen was determined.
In test [2] the test system is A549. The test is described as follows: Cytotoxicity against A-549 cell line in the purdue cell culture screen was determined.
Test [3] relates to MCF7. The test is described as follows: Cytotoxicity against MCF-7 cell line in the purdue cell culture screen was determined.
Test [4] concerns NCI/ADR-RES. Briefly: Cytotoxicity against MCF-7ADR cell line in the purdue cell culture screen was determined.
For test [5], the system named is HT-29. The test is described as follows: Cytotoxicity against HT-29 cell line in the purdue cell culture screen was determined.
In test [6] the test system is PC-3. The test is described as follows: Cytotoxicity against PC-3 cell line in the purdue cell culture screen was determined.
Test [7] deals with MCF7R. Briefly: Cytotoxicity against MCF-7R cell line in the purdue cell culture screen was determined.
Test [8] has as its system A498. The test is described as follows: Cytotoxicity against A-498 cell line in the purdue cell culture screen was determined.

Turning to `CC(=O)O[C@H]1CC[C@@]2(C)[C@@](C)(CCC3[C@]2(C)CC[C@@]2(C)[C@@]3(C)CC(=O)[C@]2(O)[C@H](C)C2(CCC(C)C)OCCO2)C1` (stereo not given in full), the EC50 in test [1] is 88 µM; in test [2] it was 31 µM; in test [3], 39 µM; in test [4] it was 70 µM; in test [5] it was 7.5 µM; in test [6], 580 µM. The EC50 in test [7] came to 89 µM; in test [8] it was 15 µM.

Regarding `CC(C)CCC1([C@@H](C)[C@@]2(O)[C@@H](O)C[C@@]3(C)C4CC[C@]5(C)Cc6nc7c(nc6C[C@]5(C)[C@]4(C)CC[C@]23C)C[C@@]2(C)CCC3[C@@H]4C[C@@H]5OC6(O[C@](C)(CO)C[C@H]6O)[C@@H](C)[C@]5(O)[C@@]4(C)[C@H](O)C[C@]3(C)[C@@]2(C)C7)OCCO1` (stereo not given in full), the EC50 in test [1] was determined as 2.4 µM; in test [2], 2.9 µM; in test [5] it was 0.22 µM; in test [6] it was 1.1 µM; in test [7] it was 0.62 µM; in test [8], 1.1 µM.

Regarding `CC(C)CCC1([C@@H](C)[C@@]2(O)[C@@H](O)C[C@@]3(C)C4CC[C@@]5(C)C[C@@H](O)CC[C@]5(C)[C@@]4(C)CC[C@]23C)OCCO1` (stereo not given in full), the EC50 in test [1] was 1.2 µM; in test [2], 0.34 µM; in test [5], 0.58 µM; in test [6] it was 0.4 µM; in test [7], 1.6 µM; in test [8], 1.3 µM.

Consider `CC(=O)O[C@H]1CC[C@@]2(C)C(=CCC3[C@]4(C)C[C@H](O)[C@](O)([C@H](C)C5(CCC(C)C)OCCO5)[C@@]4(C)CC[C@@]32C)C1` (stereo not given in full), for which the EC50 in test [1] is 11 µM; in test [2] it was 15 µM; in test [3], over 60 µM; in test [4] it was over 64 µM; in test [5] it was 4.8 µM; in test [6] it was 10 µM. Moreover, the EC50 in test [7] is 33 µM; in test [8], 2.8 µM.

On to `C[C@@H]1[C@]2(O[C@H]3C=C4[C@@H]5CC[C@H]6Cc7nc8c(nc7C[C@]6(C)[C@H]5C[C@@H](O)[C@]4(C)[C@]31O)C[C@@H]1CC[C@H]3C4=CC[C@@H]5[C@H](C)[C@@]6(OC[C@]45C(=O)C[C@@H]3[C@@]1(C)C8)OC(C)(C)C[C@H]6O)O[C@](C)(CO)C[C@H]2O` [CEPHALOSTATIN 1], for which the EC50 in test [1] came out at 4 µM; in test [4], 4.1 µM; in test [6] it was 1.4 µM.

Consider `CC(C)CCC1([C@@H](C)[C@@]2(O)[C@H](O)C[C@@]3(C)C4CC[C@@]5(C)C[C@@H](O)CC[C@]5(C)[C@@]4(C)CC[C@]23C)OCCO1` (stereo not given in full), for which the EC50 in test [1] was 6.4 µM; in test [2], 13 µM; in test [3], 2.4 µM; in test [4] it was 28 µM; in test [5], 3 µM; in test [6], 39 µM. The EC50 was 7.1 µM in test [7] and 1.7 µM in test [8].

As to `CC(=O)O[C@H]1CC[C@@]2(C)[C@@](C)(CCC3[C@]2(C)CC[C@]2(C)[C@@](O)([C@H](C)C4(CCC(C)C)OCCO4)[C@H](O)C[C@@]32C)C1` (stereo not given in full), the EC50 in test [1] turned out to be 23 µM; in test [2], 30 µM; in test [3], 23 µM; in test [4] it was 42 µM; in test [5] it was 29 µM; in test [6], 17 µM. Also, the EC50 in test [7] was determined as 31 µM; in test [8], 16 µM.

In the case of `CO/N=C1\C[C@]2(C)CCC3C4=C[C@@H]5OC6(CC(C)(C)CO6)[C@@H](C)[C@@H]5[C@@]4(C)[C@H](O)C[C@]3(C)[C@@]2(C)C[C@H]1N` (stereo not given in full), the EC50 in test [1] is 14 µM; in test [2], 5.9 µM; in test [3] it was 14 µM; in test [4] it was 76 µM; in test [5] it was 7.8 µM; in test [6], 14 µM. The EC50 in test [8] came to 3.1 µM.

Consider `CC(C)CCC1([C@@H](C)[C@@]2(O)[C@@H](O)C[C@@]3(C)C4CC[C@@]5(C)Cc6nc7c(nc6C[C@]5(C)[C@@]4(C)CC[C@]23C)C[C@]2(C)CCC3C4=C[C@@H]5OC6(CC(C)(C)CO6)[C@@H](C)[C@@H]5[C@@]4(C)[C@H](O)C[C@]3(C)[C@@]2(C)C7)OCCO1` (stereo not given in full), for which the EC50 in test [1] is over 2.2 µM; in test [2], 0.1 µM; in test [5] it was over 2.6 µM; in test [6], 0.3 µM; in test [7], 1 µM; in test [8], 3.1 µM.

Regarding `CC(C)CCC1([C@@H](C)[C@@]2(O)C(=O)C[C@@]3(C)C4CC[C@@]5(C)C[C@@H](O)CC[C@]5(C)[C@@]4(C)CC[C@@]32C)OCCO1` (stereo not given in full), the EC50 in test [1] was found to be 23 µM; in test [2], 17 µM; in test [3], 5.6 µM; in test [4], 13 µM; in test [5], 2.1 µM; in test [6] it was 43 µM. Besides, the figures for the EC50 in test [7] and in test [8] were 6.5 µM and 2.4 µM, respectively.

For `COc1cccc2c1C(=O)c1c(O)c3c(c(O)c1C2=O)C[C@@](O)(C(=O)CO)C[C@@H]3O[C@H]1C[C@H](N)[C@H](O)[C@H](C)O1` [DOXORUBICIN HYDROCHLORIDE], the EC50 in test [1] was 6.3 µM; in test [2] it was 6.2 µM; in test [3], 3.4 µM; in test [4], 1.5 µM; in test [5], 3.7 µM; in test [6], 5.7 µM. Also, the EC50 in test [7] came to 0.6 µM; in test [8], 3.5 µM.

`CC(C)CCC(=O)[C@@H](C)[C@@]1(O)C(=O)C[C@@]2(C)C3CC[C@@]4(C)C[C@@H](O)CC[C@]4(C)[C@@]3(C)CC[C@@]21C` (stereo not given in full): the EC50 in test [1] stood at 30 µM; in test [2] it was 105 µM; in test [3] it was 130 µM; in test [4], 100 µM; in test [5] it was 1.6 µM; in test [6], 5.6 µM. Moreover, the EC50 in test [7] was 55 µM; in test [8], 19.3 µM.

As for `CC(=O)O[C@H]1CC[C@@]2(C)C(=CCC3[C@]4(C)CC(=O)[C@](O)([C@H](C)C5(CCC(C)C)OCCO5)[C@@]4(C)CC[C@@]32C)C1` (stereo not given in full), the EC50 in test [1] came to 2.2 µM; in test [2] it was 15 µM; in test [3], 28 µM; in test [4], 26 µM; in test [5], 0.5 µM; in test [6], 3.7 µM. Further, the results for the EC50 in test [7] and in test [8] were 11 µM and 2.8 µM, respectively.

Take `CC(C)CCC(=O)[C@@H](C)[C@@]1(O)[C@H](O)C[C@@]2(C)C3CC[C@@]4(C)C[C@@H](O)CC[C@]4(C)[C@@]3(C)CC[C@]12C` (stereo not given in full): the EC50 in test [1] is 23 µM; in test [2] it was 17 µM; in test [3], 5.6 µM; in test [4], 13 µM; in test [5], 2.1 µM; in test [6], 43 µM. The results for the EC50 in test [7] and in test [8] were 6.5 µM and 2.4 µM, respectively.
